# Results published in ChEMBL document CHEMBL1158983, “Toxins Produced by the Dogwood Anthracnose Fungus Discula sp” (1991).
# Activity calls are given as the source filed them. The calls are words filed in the database; no cut-off is given here.
# Legend:
# Assay type in all cases: functional
# Senna obtusifolia = assay: Phytotoxicity against Sicklepod assessed as leaf necrotic lesions at 100 ug by detached leaf spot method
# [1] = system: Agrobacterium tumefaciens; assay: Antimicrobial activity against Agrobacterium tumefaciens at 500 ug/disk; conditions: for zone of inhibition at 500 µg/disc: read-out: IZ
# Chenopodium album = assay: Phytotoxicity against Lamb's quarters assessed as leaf necrotic lesions at 100 ug by detached leaf spot method
# Cornus florida [2] = assay: Phytotoxicity against Dogwood NCPV 102 assessed as leaf necrotic lesions at 50 ug by detached leaf spot method
# Colletotrichum acutatum = assay: Antimicrobial activity against Colletotrichum acutatum at 500 ug/disk; conditions: for zone of inhibition at 500 µg/disc: read-out: IZ
# Nasturtium officinale = assay: Phytotoxicity against watercress assessed as leaf necrotic lesions at 100 ug by detached leaf spot method
# Ambrosia artemisiifolia = assay: Phytotoxicity against ragweed assessed as leaf necrotic lesions at 100 ug by detached leaf spot method
# [3] = system: Curtobacterium flaccumfaciens; assay: Antimicrobial activity against Corynebacterium flaccumfaciens at 500 ug/disk; conditions: for zone of inhibition at 500 µg/disc: read-out: IZ
# Datura stramonium = assay: Phytotoxicity against Jimsonweed assessed as leaf necrotic lesions at 100 ug by detached leaf spot method
# Sorghum halepense = assay: Phytotoxicity against Johnsongrass assessed as leaf necrotic lesions at 100 ug by detached leaf spot method
# Aspergillus flavus = assay: Antimicrobial activity against Aspergillus flavus at 500 ug/disk; conditions: for zone of inhibition at 500 µg/disc: read-out: IZ
# Penicillium chrysogenum = assay: Antimicrobial activity against Penicillium notatum at 500 ug/disk; conditions: for zone of inhibition at 500 µg/disc: read-out: IZ
# [4] = system: Pectobacterium carotovorum; assay: Antimicrobial activity against Erwinia carotovora at 500 ug/disk; conditions: for zone of inhibition at 500 µg/disc: read-out: IZ
# Convolvulaceae = assay: Phytotoxicity against Morning glory assessed as leaf necrotic lesions at 100 ug by detached leaf spot method
# Sorghum = assay: Phytotoxicity against Sorghum assessed as leaf necrotic lesions at 100 ug by detached leaf spot method
# Escherichia coli = assay: Antimicrobial activity against Escherichia coli at 500 ug/disk; conditions: for zone of inhibition at 500 µg/disc: read-out: IZ
# Cornus florida [5] = assay: Phytotoxicity against Dogwood NCPV 101 assessed as leaf necrotic lesions at 50 ug by detached leaf spot method
# Cornus florida [6] = assay: Phytotoxicity against Dogwood NCPV 100 assessed as leaf necrotic lesions at 50 ug by detached leaf spot method
# Sida spinosa = assay: Phytotoxicity against Prickly sida assessed as leaf necrotic lesions at 100 ug by detached leaf spot method
SMILES,Activity (Senna obtusifolia),zone of inhibition at 500 µg/disc [1],Activity (Chenopodium album),Activity (Cornus florida [2]),zone of inhibition at 500 µg/disc (Colletotrichum acutatum),Activity (Nasturtium officinale),Activity (Ambrosia artemisiifolia),zone of inhibition at 500 µg/disc [3],Activity (Datura stramonium),Activity (Sorghum halepense),zone of inhibition at 500 µg/disc (Aspergillus flavus),zone of inhibition at 500 µg/disc (Penicillium chrysogenum),zone of inhibition at 500 µg/disc [4],Activity (Convolvulaceae),Activity (Sorghum),zone of inhibition at 500 µg/disc (Escherichia coli),Activity (Cornus florida [5]),Activity (Cornus florida [6]),Activity (Sida spinosa),Activity [1],other results
CC(C)=CCc1cc(C(=O)O)ccc1O,22 mm2,8 mm,23 mm2,24 mm2,8 mm,56 mm2,36 mm2,5 mm,31 mm2,46 mm2,4 mm,6 mm,5 mm,28 mm2,75 mm2,0 mm,14 mm2,38 mm2,42 mm2,–,–
CC(=O)Oc1cc(O)c2c(c1)C[C@H](C)OC2=O,14 mm2,–,6 mm2,1 mm2,–,31 mm2,30 mm2,–,18 mm2,24 mm2,–,–,–,13 mm2,24 mm2,–,1 mm2,2 mm2,34 mm2,inactive,Activity (Colletotrichum acutatum): inactive; Activity [3]: inactive; Activity (Aspergillus flavus): inactive; Activity (Penicillium chrysogenum): inactive; Activity [4]: inactive; Activity (Escherichia coli): inactive
CC(=O)Oc1ccc(C(=O)O)cc1CC=C(C)C,18 mm2,6 mm,8 mm2,42 mm2,6 mm,48 mm2,38 mm2,10 mm,22 mm2,51 mm2,5 mm,5 mm,4 mm,19 mm2,73 mm2,0 mm,23 mm2,51 mm2,36 mm2,–,–
O=C(O)c1ccc(O)cc1 [PARABEN],10 mm2,0 mm,9 mm2,5 mm2,0 mm,17 mm2,15 mm2,9 mm,12 mm2,22 mm2,0 mm,0 mm,0 mm,15 mm2,19 mm2,5 mm,10 mm2,11 mm2,31 mm2,–,–
O=C1CC[C@@H](O)c2cccc(O)c21,2 mm2,–,5 mm2,13 mm2,–,14 mm2,12 mm2,–,6 mm2,13 mm2,–,–,–,4 mm2,7 mm2,–,5 mm2,12 mm2,18 mm2,inactive,Activity (Colletotrichum acutatum): inactive; Activity [3]: inactive; Activity (Aspergillus flavus): inactive; Activity (Penicillium chrysogenum): inactive; Activity [4]: inactive; Activity (Escherichia coli): inactive
C[C@H]1Cc2cc(O)cc(O)c2C(=O)O1,20 mm2,–,14 mm2,10 mm2,–,36 mm2,60 mm2,–,24 mm2,34 mm2,–,–,–,24 mm2,40 mm2,–,14 mm2,7 mm2,40 mm2,inactive,Activity (Colletotrichum acutatum): inactive; Activity [3]: inactive; Activity (Aspergillus flavus): inactive; Activity (Penicillium chrysogenum): inactive; Activity [4]: inactive; Activity (Escherichia coli): inactive
